No end group written: not given here.
How the values were obtained:
S. aureus ATCC 43300 = format: cell-based, Staphylococcus aureus
Protocol: (§1) The minimal inhibitory concentration (MIC) was determined according to a previously described method ([Chou et al., 2016]). Bacteria were cultured overnight to mid-log phase in MHB at 37°C and then diluted to give final concentrations ranging from 2 × 10^5 to 7 × 10^5 CFU/mL. Then, 50 μL of serial twofold dilutions of the peptides were added to each well in 96-well microtiter plates with a mixed solution containing 0.01% acetic acid and 0.2% bovine serum albumin (BSA, Sigma) was used to dissolve and dilute the peptides. Then, equal amounts of bacterial aliquots were incubated with the above peptide solution for 18–24 h at 37°C. The experiment was performed in triplicate using three replicates for each peptide and each bacterium. The broth was employed as a negative control and the broth with microbial cells was used as a positive control. The lowest concentration of peptide that prevented visible turbidity was defined as the MIC.

S. typhimurium ATCC 7731 = format: cell-based, Salmonella entericaserovar Typhimurium
Protocol: as §1

S. pullorum C79-13 = format: cell-based, Salmonella pullorum
Protocol: as §1

S. aureus ATCC 29213 = format: cell-based, Staphylococcus aureus; details: for MIC / MIC, CaCl2 / MIC, Control / MIC, FeCl3 / MIC, Heat (100°C) / MIC, KCl / MIC, MgCl2 / MIC, NH4Cl / MIC, NaCl / MIC, ZnCl2: ATCC 29213; for MIC, pH 4.0: ATCC 29213, pH 4; for MIC, pH 6.0: ATCC 29213, pH 6; for MIC, pH 8.0: ATCC 29213, pH 8; for MIC, pH 10.0: ATCC 29213, pH 10
Protocol: as §1, with “18-24” for “18–24”, “MIC. The condition sensitivity of peptides was tested in an MIC assay in different environments, including salt sensitivity, thermal sensitivity and different pH values similar to our previous method ([[…] et al., 2008]; [Ma et al., 2012]). […] For the heat resistance experiments, the peptides were incubated at 100°C for 30 min and cooled on ice for 10 min. […] The determination methods for these MIC assays were same as described above. To test the effects of serum on the antimicrobial activities of the peptides, human serum was dissolved in MHB to reach final concentrations of 25 and 50%. The determination methods for these MIC assays were same as described above.” for “MIC.”

E. coli = assay: Time killing assay; format: cell-based, Escherichia coli; details: mean of three independent assays
Protocol: (§2) The ability of peptides to kill bacterial cells was further investigated by analyzing the fraction of cell survival upon peptide treatment at various exposure times according to a previously described method ([Wiradharma et al., 2012]). Briefly, E. coli and S. aureus were treated at MIC and 2 × MIC concentrations with peptides. At various time periods (0, 5, 10, 30, 60, 90, 120, and 150 min), microbial suspensions were diluted at three different dilutions and plated on MHA plates. Microbial colonies were formed and counted after 24 h of incubation. The results were presented as the mean data from three independent assays.

[1] = RP-HPLC retention time as measure of relative hydrophobicity; format: physicochemical; details: analytical RP-HPLC; hydrophobicity increases with retention time
Protocol: These peptides' […] identified via matrix-assisted laser desorption/ionization time-of-flight mass spectrometry (MALDI-TOF MS, Linear Scientific Inc., United States), using α-cyano-4-hydroxycinnamic acid as the matrix. […] Quantitative peptides were dissolved in deionized water and stored at -20°C before the assessments. The rest of the peptides were stored as powders at -20°C to prevent peptide degradation. The structures and molecular weights of the peptides were verified by MALDI-TOF MS. […] The relative hydrophobicity of the symmetric-end peptides was reliably reflected by their different HPLC retention times, and the hydrophobicity increased with increasing HPLC retention times ([Lee et al., 2014]; [Zhu et al., 2014]). The HPLC retention times for […]

[2] = tested on: S. epidermidis ATCC 12228; format: cell-based, Staphylococcus epidermidis
Protocol: as §1

S. faecalis ATCC 29212 = format: cell-based, Streptococcus faecalis
Protocol: as §1

E. coli ATCC25922 = format: cell-based, Escherichia coli; details: for MIC / MIC, CaCl2 / MIC, Control / MIC, FeCl3 / MIC, Heat (100°C) / MIC, KCl / MIC, MgCl2 / MIC, NH4Cl / MIC, NaCl / MIC, ZnCl2: ATCC25922; for MIC, pH 4.0: ATCC25922, pH 4; for MIC, pH 6.0: ATCC25922, pH 6; for MIC, pH 8.0: ATCC25922, pH 8; for MIC, pH 10.0: ATCC25922, pH 10
Protocol: as §1, with “18-24” for “18–24”, “MIC. The condition sensitivity of peptides was tested in an MIC assay in different environments, including salt sensitivity, thermal sensitivity and different pH values similar to our previous method ([[…] et al., 2008]; [Ma et al., 2012]). […] For the heat resistance experiments, the peptides were incubated at 100°C for 30 min and cooled on ice for 10 min. […] The determination methods for these MIC assays were same as described above. To test the effects of serum on the antimicrobial activities of the peptides, human serum was dissolved in MHB to reach final concentrations of 25 and 50%. The determination methods for these MIC assays were same as described above.” for “MIC.”

E. coli UB1005 = format: cell-based, Escherichia coli
Protocol: as §1

B. pyocyaneum ATCC 27853 = format: cell-based, Bacterium pyocyaneum
Protocol: as §1

S. aureus = assay: Time killing assay; format: cell-based, Staphylococcus aureus; details: mean of three independent assays
Protocol: as §2

B. subtilis CMCC 63501 = format: cell-based, Bacillus subtilis
Protocol: as §1

[3] = tested on: Gram-negative and Gram-positive bacterial strains; assay: Geometric mean of MICs and therapeutic index; format: cell-based; details: for GM (geometric mean of the MIC values): all ten tested strains; for Therapeutic index: from MHC and GM
Protocol: (§3) The hemolytic activity of the peptides was detected using a previously described modified method ([Wang et al., 2015]). One milliliter of fresh hRBCs was obtained from a healthy donor (Zhihua Wang, Harbin, China) in a polycarbonate tube containing heparin. The collected hRBCs were centrifuged at 1000 × g for 5 min at 4°C and resuspended in PBS buffer (pH 7.2). The hRBCs were washed three times and then incubated with an equal volume of the respective peptide dissolved in PBS for 1 h at 37°C. Then, the hRBC suspension was placed into a 96-well microtiter plater with 50 μL of tested peptide solution at different concentrations and the mixture was incubated for 1 h at 37°C. […] The minimum hemolytic concentrations (MHCs) were defined as the peptide concentrations resulting in 5% hemolysis.
as §1

hRBCs = assay: Hemolytic activity; format: cell-based, human; details: peptide concentration resulting in 5% hemolysis of hRBCs; PBS, 1 h, 37°C
Protocol: as §3

CC(C)C[C@H](NC(=O)[C@H](CCCNC(=N)N)NC(=O)CNC(=O)CNC(=O)[C@@H](N)CCCNC(=N)N)C(=O)N[C@H]1CSSC[C@@H](C(=O)N[C@H](C(=O)NCC(=O)N[C@@H](CCCNC(=N)N)C(N)=O)C(C)C)NC(=O)[C@H](C(C)C)NC(=O)[C@@H]2CSSC[C@H](NC(=O)[C@H](Cc3ccc(O)cc3)NC1=O)C(=O)N[C@@H](CCCNC(=N)N)C(=O)N[C@@H](CCCNC(=N)N)C(=O)N[C@@H](CCCNC(=N)N)C(=O)N[C@@H](Cc1ccccc1)C(=O)N2 [PG-1, reference compound]
5 min: Time to kill S. aureus (S. aureus; peptide at 1 × MIC)
4 µM: MIC, CaCl2 (E. coli ATCC25922) | MIC, FeCl3 (E. coli ATCC25922) | MIC, NaCl (E. coli ATCC25922)
16 μM: MIC, pH 10.0 (S. aureus ATCC 29213)
32 µM: MIC, NaCl (S. aureus ATCC 29213)
10 min: Time to kill E. coli (E. coli; peptide at 1 × MIC) | Time to kill E. coli (E. coli; peptide at 2 × MIC) | Time to kill S. aureus (S. aureus; peptide at 2 × MIC)
2 µM: MIC (S. aureus ATCC 43300) | MIC (S. pullorum C79-13) | MIC (E. coli ATCC25922) | MIC, Control (E. coli ATCC25922) | MIC, KCl (E. coli ATCC25922) | MIC, MgCl2 (E. coli ATCC25922) | MIC, NH4Cl (E. coli ATCC25922) | MIC, ZnCl2 (E. coli ATCC25922) | MIC (E. coli UB1005)
4 μM: MIC, pH 4.0 (E. coli ATCC25922) | MIC, pH 6.0 (E. coli ATCC25922) | MIC, pH 8.0 (E. coli ATCC25922) | MIC, pH 10.0 (E. coli ATCC25922)
16 µM: MIC, CaCl2 (S. aureus ATCC 29213) | MIC, Heat (100°C) (S. aureus ATCC 29213) | MIC [2] | MIC (S. faecalis ATCC 29212) | MIC (B. pyocyaneum ATCC 27853)
8 µM: MIC (S. typhimurium ATCC 7731) | MIC (S. aureus ATCC 29213) | MIC, Control (S. aureus ATCC 29213) | MIC, FeCl3 (S. aureus ATCC 29213) | MIC, KCl (S. aureus ATCC 29213) | MIC, MgCl2 (S. aureus ATCC 29213) | MIC, NH4Cl (S. aureus ATCC 29213) | MIC, ZnCl2 (S. aureus ATCC 29213) | MIC, Heat (100°C) (E. coli ATCC25922) | MIC (B. subtilis CMCC 63501)
12.56 min: Retained time (HPLC retention time) [1]
8 μM: MIC, pH 4.0 (S. aureus ATCC 29213) | MIC, pH 6.0 (S. aureus ATCC 29213) | MIC, pH 8.0 (S. aureus ATCC 29213)

IHFKWRRWKFHI-NH2 [Qna]
>128 µM: MHC (minimum hemolytic concentration) (hRBCs)
32 µM: MIC (S. aureus ATCC 43300) | MIC (S. typhimurium ATCC 7731) | MIC (S. pullorum C79-13) | MIC (S. aureus ATCC 29213) | MIC [2] | MIC (E. coli ATCC25922) | MIC (B. pyocyaneum ATCC 27853)
7.5: Therapeutic index [3]
16 µM: MIC (E. coli UB1005)
34.3 µM: GM (geometric mean of the MIC values) [3]
64 µM: MIC (S. faecalis ATCC 29212) | MIC (B. subtilis CMCC 63501)

IHKFWRGGRWFKHI-NH2 [GG]
10.24 min: Retained time (HPLC retention time) [1]
8 µM: MIC (S. pullorum C79-13) | MIC (E. coli ATCC25922) | MIC (E. coli UB1005)
32 µM: MIC (S. aureus ATCC 43300) | MIC [2] | MIC (S. faecalis ATCC 29212)
64 µM: MIC (S. typhimurium ATCC 7731)
16 µM: MIC (S. aureus ATCC 29213) | MIC (B. pyocyaneum ATCC 27853) | MIC (B. subtilis CMCC 63501)

IHKFWRPGRWFKHI-NH2 [PP]
>128 µM: MHC (minimum hemolytic concentration) (hRBCs)
8 μM: MIC, pH 4.0 (E. coli ATCC25922) | MIC, pH 6.0 (E. coli ATCC25922) | MIC, pH 10.0 (E. coli ATCC25922)
2 µM: MIC, MgCl2 (E. coli ATCC25922) | MIC, NH4Cl (E. coli ATCC25922) | MIC, ZnCl2 (E. coli ATCC25922)
8 µM: MIC (S. typhimurium ATCC 7731) | MIC, FeCl3 (S. aureus ATCC 29213) | MIC, NH4Cl (S. aureus ATCC 29213) | MIC (S. faecalis ATCC 29212) | MIC (E. coli ATCC25922) | MIC, Control (E. coli ATCC25922) | MIC, Heat (100°C) (E. coli ATCC25922) | MIC, NaCl (E. coli ATCC25922) | MIC (B. subtilis CMCC 63501)
8.0 µM: GM (geometric mean of the MIC values) [3]
128 µM: MIC, NaCl (S. aureus ATCC 29213)
32.0: Therapeutic index [3]
32 µM: MIC, CaCl2 (S. aureus ATCC 29213)
16 µM: MIC (S. aureus ATCC 43300) | MIC (S. aureus ATCC 29213) | MIC, Control (S. aureus ATCC 29213) | MIC, Heat (100°C) (S. aureus ATCC 29213) | MIC, KCl (S. aureus ATCC 29213) | MIC, MgCl2 (S. aureus ATCC 29213) | MIC [2]
16 μM: MIC, pH 4.0 (S. aureus ATCC 29213) | MIC, pH 6.0 (S. aureus ATCC 29213) | MIC, pH 8.0 (S. aureus ATCC 29213) | MIC, pH 10.0 (S. aureus ATCC 29213) | MIC, pH 8.0 (E. coli ATCC25922)
4 µM: MIC (S. pullorum C79-13) | MIC, ZnCl2 (S. aureus ATCC 29213) | MIC, CaCl2 (E. coli ATCC25922) | MIC, FeCl3 (E. coli ATCC25922) | MIC, KCl (E. coli ATCC25922) | MIC (E. coli UB1005) | MIC (B. pyocyaneum ATCC 27853)

IHKFWRRWFKHI-NH2 [Qa]
17.2: Therapeutic index [3]
16 µM: MIC (S. aureus ATCC 43300) | MIC (S. typhimurium ATCC 7731) | MIC (S. pullorum C79-13) | MIC [2] | MIC (S. faecalis ATCC 29212) | MIC (E. coli ATCC25922) | MIC (B. pyocyaneum ATCC 27853)
>128 µM: MHC (minimum hemolytic concentration) (hRBCs)
8 µM: MIC (S. aureus ATCC 29213) | MIC (E. coli UB1005)
32 µM: MIC (B. subtilis CMCC 63501)
14.9 µM: GM (geometric mean of the MIC values) [3]
